# Patent publication US20190083521A1, “COMBINATION THERAPY FOR TREATING CANCER” (Epizyme, Inc., priority 2014, published 2019)
# Like-named read-outs stand apart in the source and are kept apart here.
# Tests used:
# [1] = test system: SKM-1 cells; assay: Example 6 combination screen: 300 nM EPZ-5676 pre-treatment, second compound 72 h, ATPLite, IC50 shift; type: cell-based, human; settings: SKM-1 cells; 300 nM EPZ-5676 pre-treatment (4 + 3 days) vs DMSO, then 2nd compound 72 h; ATPLite; IC50 shift of 2nd compound
# Description: (§1) Cells were then equilibrated in incubators for 24 hours before treatment with a second compound. Treated assay plates were incubated with a second compound for 72 hours. After this time, plates were developed for endpoint analysis using ATPLite to measure ATP content, which is used as an indicator of cell viability.
# “N/D” means that IC50 of the second compound could not be determined for both conditions.
# [2] = test system: MOLM-13 (MLL-AF9) cells; assay: Example 7 primary screen: 300 nM EPZ-5676 pre-treatment, second compound 72 h, ATPLite, GI100 shift; type: cell-based, human; settings: MOLM-13 (MLL-AF9); 300 nM EPZ-5676 pre-treatment vs DMSO
# Description: as §1, with “Cells were split using EPZ-5676 or DMSO containing growth media and further incubated for an additional 3-day pre-treatment time. Cells were finally seeded in growth media containing EPZ-5676 or DMSO in 384-well plates at 500 cell/well density. Cells” for “Cells”
# (§2) “N/D” means the GI100 of the second compound could not be determined for both conditions and “-” means not tested.
# (§3) Growth Inhibition (GI) as a measure of cell viability: The cell viability of vehicle was measured at the time of dosing the second agent (T0) and after seventy-two hours (T72). A GI reading of 0% represents no growth inhibition—cells treated with test compound as compared to T72 vehicle signals were measured. […] A GI 200% represents complete death of all cells in the culture well. Compounds reaching an activity plateau of GI 200% are considered cytotoxic. GI is calculated by applying the following test and equation: […]
# [3] = test system: SKM-1 (non-MLLr) cells; assay: as above; type: cell-based, human; settings: SKM-1 (non-MLLr); 300 nM EPZ-5676 pre-treatment vs DMSO
# Description: as §1, with “Cells were split using EPZ-5676 or DMSO containing growth media and further incubated for an additional 3-day pre-treatment time. Cells were finally seeded in growth media containing EPZ-5676 or DMSO in 384-well plates at 500 cell/well density. Cells” for “Cells”
# as §2, §3
# [4] = test system: OCI-AML-4 (MLL-ENL) cells; assay: as above; type: cell-based; settings: OCI-AML-4 (MLL-ENL); 300 nM EPZ-5676 pre-treatment vs DMSO
# Description: as §1, with “Cells were split using EPZ-5676 or DMSO containing growth media and further incubated for an additional 3-day pre-treatment time. Cells were finally seeded in growth media containing EPZ-5676 or DMSO in 384-well plates at 500 cell/well density. Cells” for “Cells”
# as §2, §3
# [5] = test system: MOLM-13 (MLL-AF9) cells; assay: Example 7 retest: EPZ-5676 pre-treatment, second compound 72 h, Cell Titer Glo, growth inhibition; type: cell-based, human; parameters: GI100: unit not given here; settings: MOLM-13 (MLL-AF9)
# [6] = test system: SKM-1 (non-MLLr) cells; assay: as above; type: cell-based, human; parameters: GI100: unit not given here; settings: SKM-1 (non-MLLr)
# [7] = test system: OCI-AML-4 (MLL-ENL) cells; assay: as above; type: cell-based; settings: OCI-AML-4 (MLL-ENL)
# [8] = test system: THP-1 (MLL-AF9) cells; assay: as above; type: cell-based; parameters: GI100: unit not given here; settings: NRAS G12D
# [9] = test system: ML-2 (MLL-AF6) cells; assay: as above; type: cell-based; parameters: GI100: unit not given here; settings: ML-2 (MLL-AF6), KRAS A146T (het)
# [10] = test system: RS4-11 (MLL-AF4) cells; assay: as above; type: cell-based; parameters: GI100: unit not given here; settings: RS4-11 (MLL-AF4), Ras mutation status: None known, second compound, 72 h
# [11] = test system: MOLM-13 (MLL-AF9) cells; assay: Combination proliferation assay with Compound A2 (CellTiter-Glo, Chou-Talalay CI); type: cell-based, human
# Outline: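 Viability by CellTiter-Glo ATP luminescence; fraction affected versus DMSO controls, combination index by Chou-Talalay (CI <1 synergy, >1 antagonism).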
# [12] = test system: MV4-11 (MLL-AF4) cells; assay: as above; type: cell-based, human
# Outline: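 Viability by CellTiter-Glo ATP luminescence; fraction affected versus DMSO controls; combination index by Chou-Talalay method (CI <1 synergy, >1 antagonism).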
# [13] = test system: SKM-1 (non-MLL-rearranged AML) cells; assay: as above; type: cell-based, human
# Description: (§4) Graphs representing values of combination index (CI) versus Fractional effect (Fa) known as Fa-CI plots were generated and synergy was evaluated.
# (§5) Viability was determined using CellTiter-Glo® (Promega).
# MV4-11 cells were maintained in IMDM supplemented with 10% fetal bovine serum. MOLM-13 and SKM-1 cells were maintained in Roswell Park Memorial Institute medium (RPMI) supplemented with 10% fetal bovine serum. They were cultured in flasks or plates in a humidified 5% CO2 atmosphere.
# Proliferation studies were performed using MOLM-13, MV4-11 and SKM-1 cell lines in vitro to evaluate the cancer cell killing effect of a combination of two agents together on cell growth. Initial proliferation studies were performed to determine the IC50 values of a given compound in each cell line. The cell counts were measured by ATP quantitation using the Promega Cell Titer Glo kit and luminescence values correspond to the amount of ATP in a given well.
# Compounds evaluated for synergy in the co-treatment phase were tested in a range which was bracketed around the IC50's. The compounds were plated to a 96 well plate in a matrix format which includes increasing concentrations of each drug in the combination in a constant ratio, in addition to the effect of each compound alone in the study. Cells were seeded and grown in the log-linear phase for 3 or 7 days in the cotreatment phase. Maximum and minimum inhibition (DMSO alone) controls were used in each plate to calculate fraction affected (Fa) of a test well. DMSO concentration was kept at 0.1% v/v. The drug combination analysis was performed utilizing the Chou-Talalay method. Synergy was determined using the software package Calcusyn by Biosoft. The combination index (CI) is the term used to describe the level of synergy or antagonism in a given test system. A combination index less than one indicates synergy, and a CI greater than one indicates antagonism.
# The drug combination analysis was performed using the Chou-Talalay method. Graphs representing values of combination index (CI) versus Fractional effect (Fa) known as Fa-CI plots were generated and synergy was evaluated.
# [14] = test system: EOL-1 (MLL-PTD) cells; assay: Combination proliferation assay with Compound A2 (Chou-Talalay CI); type: cell-based, human
# Description: as §4, §5
# [15] = test system: KOPM-88 (MLL-PTD) cells; assay: as above; type: cell-based, human
# Description: as §4, §5
# [16] = 300 nM EPZ-5676 pre-treatment vs DMSO
# [17] = KRAS K117N (homo), second compound, 72 h
smiles,measurement,setting,value
O=C(Nc1ccc2[nH]nc(-c3ccncc3)c2c1)[C@@H]1CCN(CC(=O)N2CCN(c3ccc(-c4ncccn4)cc3)CC2)C1 [SCH772984],Summary of Combination Studies: SKM-1,[1],Synergy (considered synergistic if the IC50 value of the second compound decreased by 2-fold or more when EPZ-5676 was added as compared to the DMSO control)
same,"Combination result with EPZ-5676, Primary screen",[2],Synergy (considered synergistic if the GI100 (Growth inhibition 100) value of the second compound decreased by 2-fold or more when EPZ-5676 was added as compared to the DMSO control)
same,"Combination result with EPZ-5676, Primary screen",[3],Synergy (considered synergistic if the GI100 (Growth inhibition 100) value of the second compound decreased by 2-fold or more when EPZ-5676 was added as compared to the DMSO control)
same,"Combination result with EPZ-5676, Primary screen",[4],Synergy (considered synergistic if the GI100 (Growth inhibition 100) value of the second compound decreased by 2-fold or more when EPZ-5676 was added as compared to the DMSO control)
same,GI50,"[5]; Homo sapiens, Ras mutation status: None known, second compound, 72 h",210 nM
same,"Combination result with EPZ-5676, Retest",[5]; 150 nM EPZ-5676 pre-treatment vs DMSO,Synergy (considered synergistic if the GI100 (Growth inhibition 100) value of the second compound decreased by 2-fold or more when EPZ-5676 was added as compared to the DMSO control)
same,Result (combination with EPZ-5676),[5]; Ras mutation status: None known,Synergy (considered synergistic if the GI100 (Growth inhibition 100) value of the second compound decreased by 2-fold or more when EPZ-5676 was added as compared to the DMSO control)
same,GI100,"[5]; Ras mutation status: None known, second compound, 72 h",0.53
same,"Combination result with EPZ-5676, Retest",[6]; [16],Synergy (considered synergistic if the GI100 (Growth inhibition 100) value of the second compound decreased by 2-fold or more when EPZ-5676 was added as compared to the DMSO control)
same,Result (combination with EPZ-5676),[6]; KRAS K117N (homo),Synergy (considered synergistic if the GI100 (Growth inhibition 100) value of the second compound decreased by 2-fold or more when EPZ-5676 was added as compared to the DMSO control)
same,GI50,[6]; [17],20 nM
same,GI100,[6]; [17],0.086
same,"Combination result with EPZ-5676, Retest",[7]; [16],Synergy (considered synergistic if the GI100 (Growth inhibition 100) value of the second compound decreased by 2-fold or more when EPZ-5676 was added as compared to the DMSO control)
same,Result (combination with EPZ-5676),[7]; NRAS Q61R (het),Synergy (considered synergistic if the GI100 (Growth inhibition 100) value of the second compound decreased by 2-fold or more when EPZ-5676 was added as compared to the DMSO control)
same,GI50,"[7]; NRAS Q61R (het), second compound, 72 h",70 nM
same,GI50,[8],60 nM
same,GI100,[8],>10
same,Result (combination with EPZ-5676),[9],Synergy (considered synergistic if the GI100 (Growth inhibition 100) value of the second compound decreased by 2-fold or more when EPZ-5676 was added as compared to the DMSO control)
same,GI50,"[9]; second compound, 72 h",40 nM
same,GI100,"[9]; second compound, 72 h",0.26
same,GI50,[10]; Homo sapiens,7240 nM
same,GI100,[10],>10
COc1cccc2c1C(=O)c1c(O)c3c(c(O)c1C2=O)C[C@@](O)(C(C)=O)C[C@@H]3O[C@H]1C[C@H](N)[C@H](O)[C@H](C)O1 [Daunorubicin],Antiproliferative combination effect after Compound A2 washout,[11],maintained
same,Antiproliferative combination effect with Compound A2,[11],synergistic
same,Antiproliferative combination effect after Compound A2 washout,[12],maintained
same,Antiproliferative combination effect with Compound A2,[12],synergistic
same,Combination effect with Compound A2 (Table 2),[13],did not act synergistically
same,Effect of Compound A2 on antiproliferative activity of the second agent,[13],did not affect
same,Combination effect with Compound A2 (Table 3),[14],Synergy (key: Synergy: Drug synergy was statistically defined by CI values less than 1; Antagonistic: antagonism by CI>1; Additive: additive effect by CI equal to 1)
same,Combination effect with Compound A2 (Table 3),[15],Synergy (key: Synergy: Drug synergy was statistically defined by CI values less than 1; Antagonistic: antagonism by CI>1; Additive: additive effect by CI equal to 1)
Nc1ncn([C@@H]2O[C@H](CO)[C@@H](O)[C@H]2O)c(=O)n1 [Azacitidine],Combination effect with Compound A2 (Table 4),"[11]; MOLM-13 (MLL-AF9), 7 Day Cotreatment Model",Strong Synergy
same,Combination effect with Compound A2 (Table 2),[11]; MOLM-13 MLL-AF9,Synergy (Drug synergy was statistically defined by CI values less than 1)
same,Combination effect with Compound A2,"[12]; MV4-11, 7 Day Cotreatment (Example 1)",Synergy (A combination index less than one indicates synergy)
same,Combination effect with Compound A2 (Table 2),[12]; MV4-11 MLL-AF4,Synergy (Drug synergy was statistically defined by CI values less than 1)
same,Effect of Compound A2 on antiproliferative activity of the second agent,[13]; SKM-1 non-MLL-rearranged (Example 5),no impact
same,Combination effect with Compound A2 (Table 3),[14]; EOL-1 (MLL-PTD),Synergy (Drug synergy was statistically defined by CI values less than 1)
same,Combination effect with Compound A2 (Table 3),[15]; KOPM-88 (MLL-PTD),Synergy (Drug synergy was statistically defined by CI values less than 1)
